For one data set, the target named is T1, dDAT (Drosophila melanogaster, UniProt Q7K4Y6).
T1 construct: gene DAT
The note with it: […] min, room temperature, labelled compound.

Data set [1] addresses T2, LeuT (Aquifex aeolicus, UniProt O67854, H7C/R86C/A309C, form not given).
T2 construct: gene snf; pET16b, C-terminal 8xHis tag removed with thrombin, expressed in E. coli C41/C43(DE3), purified in DDM then OG; Cys pairs with spin labels for DEER
The data set is described as follows: DEER EPR distance distributions. The note with it: […] NaCl, fourfold molar excess of Leu; each spin-label pair in its own construct (pair also printed as […]). It is filed as binding.

Data set [2] addresses T3, LeuT (Aquifex aeolicus, UniProt O67854, R375D, form not given).
T3 construct: gene snf; pET16b, C-terminal 8xHis tag removed with thrombin, expressed in E. coli C41/C43(DE3), purified in DDM then OG; Cys pairs with spin labels for DEER
The data set is described as follows: DEER EPR distance distributions. It is filed as binding. The conditions noted are these: […] NaCl, fourfold molar excess of Leu; each spin-label pair in its own construct (pair also printed as […]).

The target in data set [3] is T4, LeuT (Aquifex aeolicus, UniProt O67854, R375A).
T4 construct: gene snf; pET16b, C-terminal 8xHis tag removed with thrombin, expressed in E. coli C41/C43(DE3), purified in DDM then OG; Cys pairs with spin labels for DEER
The data set is described as follows: X-ray crystal structure, […] A. In kind it is binding. The conditions noted are these: Na+ bound, outward-facing occluded.

Data set [4] concerns the target T5, LeuT (Aquifex aeolicus, UniProt O67854, R375D).
T5 construct: gene snf; pET16b, C-terminal 8xHis tag removed with thrombin, expressed in E. coli C41/C43(DE3), purified in DDM then OG; Cys pairs with spin labels for DEER
The data set is described as follows: X-ray crystal structure, […] A. In kind it is binding. The conditions noted are these: Na+ bound, outward-facing occluded.

Data set [5] deals with T6, LeuT (Aquifex aeolicus, UniProt O67854).
T6 construct: gene snf; pET16b, C-terminal 8xHis tag removed with thrombin, expressed in E. coli C41/C43(DE3), purified in DDM then OG; Cys pairs with spin labels for DEER
The data set is described as follows: X-ray crystal structure, […] A. It is filed as binding. The conditions noted are these: Na+ bound, outward-facing occluded.

Substrate in data set [6]: NCCc1ccc(O)c(O)c1
The data set is described as follows: cells, lysate or membranes. The note with it: pH […]-7.[…] min, […] DA, labelled compound.

T1 sequence (Q7K4Y6 whole entry): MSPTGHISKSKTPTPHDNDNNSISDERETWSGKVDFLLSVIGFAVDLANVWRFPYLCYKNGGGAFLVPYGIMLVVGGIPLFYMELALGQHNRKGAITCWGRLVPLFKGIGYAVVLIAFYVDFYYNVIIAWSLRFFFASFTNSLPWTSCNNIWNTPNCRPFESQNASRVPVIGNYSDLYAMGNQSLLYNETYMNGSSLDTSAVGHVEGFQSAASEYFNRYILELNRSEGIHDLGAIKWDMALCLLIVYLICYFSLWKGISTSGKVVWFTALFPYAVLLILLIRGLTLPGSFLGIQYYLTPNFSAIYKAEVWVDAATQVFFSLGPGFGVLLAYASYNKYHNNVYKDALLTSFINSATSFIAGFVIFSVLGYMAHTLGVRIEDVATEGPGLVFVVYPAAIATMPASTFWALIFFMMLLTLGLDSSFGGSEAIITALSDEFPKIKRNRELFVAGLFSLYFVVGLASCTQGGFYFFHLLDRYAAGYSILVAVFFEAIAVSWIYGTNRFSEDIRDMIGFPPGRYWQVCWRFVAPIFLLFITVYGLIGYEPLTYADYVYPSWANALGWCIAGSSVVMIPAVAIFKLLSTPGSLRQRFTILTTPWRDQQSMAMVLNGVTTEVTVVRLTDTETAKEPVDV

With `NCCc1ccc(O)c(O)c1` [dopamine], the “[3H]DA uptake, intact fly brains” value on dDAT is “uptake of [^3H]DA in hDAT WT Drosophila brains was not significantly different from that measured in dDAT”.

Take `CC(C)C[C@H](N)C(=O)O` [Leu]: the “DEER EPR distance distributions” value at LeuT [1] is “Leu binding to Na^+-bound LeuT restores the conformational preference to the OO form”; on LeuT [2], “Na^+/Leu resets the IC gate to the IO conformation”.

As to `C[C@H](N)C(=O)O` [L-Ala], the “X-ray crystal structure, 2.1 A” value on LeuT [3] is “LeuT WT, LeuT R375A, and LeuT R375D solved in the L-Ala and Na^+ bound OO conformation”; on LeuT [5], “L-Ala, Na1, and Na2 (purple spheres) could be modeled into their respective binding sites”. On LeuT [4], the “X-ray crystal structure, 2.6 A” value was “LeuT WT, LeuT R375A, and LeuT R375D solved in the L-Ala and Na^+ bound OO conformation”.

B1: hDAT (Homo sapiens) (protein)
chain: MSKSKCSVGLMSSVVAPAKEPNAVGPKEVELILVKEQNGVQLTSSTLTNPRQSPVEAQDRETWGKKIDFLLSVIGFAVDLANVWRFPYLCYKNGGGAFLVPYLLFMVIAGMPLFYMELALGQFNREGAAGVWKICPILKGVGFTVILISLYVGFFYNVIIAWALHYLFSSFTTELPWIHCNNSWNSPNCSDAHPGDSSGDSSGLNDTFGTTPAAEYFERGVLHLHQSHGIDDLGPPRWQLTACLVLVIVLLYFSLWKGVKTSGKVVWITATMPYVVLTALLLRGVTLPGAIDGIRAYLSVDFYRLCEASVWIDAATQVCFSLGVGFGVLIAFSSYNKFTNNCYRDAIVTTSINSLTSFSSGFVVFSFLGYMAQKHSVPIGDVAKDGPGLIFIIYPEAIATLPLSSAWAVVFFIMLLTLGIDSAMGGMESVITGLIDEFQLLHRHRELFTLFIVLATFLLSLFCVTNGGIYVFTLLDHFAAGTSILFGVLIEAIGVAWFYGVGQFSDDIQQMTGQRPSLYWRLCWKLVSPCFLLFVVVVSIVTFRPPHYGAYIFPDWANALGWVIATSSMAMVPIYAAYKFCSLPGSFREKLAYAIAPEKDRELVDRGEVRQFTLRHWLKV
For the molecule B1, the Km – broadly, the substrate concentration at which the rate is half of its maximum – in data set [6] came out at 5.7 ± 1.4 µM.

B2: hDAT (Homo sapiens; R445C) (protein)
chain: MSKSKCSVGLMSSVVAPAKEPNAVGPKEVELILVKEQNGVQLTSSTLTNPRQSPVEAQDRETWGKKIDFLLSVIGFAVDLANVWRFPYLCYKNGGGAFLVPYLLFMVIAGMPLFYMELALGQFNREGAAGVWKICPILKGVGFTVILISLYVGFFYNVIIAWALHYLFSSFTTELPWIHCNNSWNSPNCSDAHPGDSSGDSSGLNDTFGTTPAAEYFERGVLHLHQSHGIDDLGPPRWQLTACLVLVIVLLYFSLWKGVKTSGKVVWITATMPYVVLTALLLRGVTLPGAIDGIRAYLSVDFYRLCEASVWIDAATQVCFSLGVGFGVLIAFSSYNKFTNNCYRDAIVTTSINSLTSFSSGFVVFSFLGYMAQKHSVPIGDVAKDGPGLIFIIYPEAIATLPLSSAWAVVFFIMLLTLGIDSAMGGMESVITGLIDEFQLLHRHCELFTLFIVLATFLLSLFCVTNGGIYVFTLLDHFAAGTSILFGVLIEAIGVAWFYGVGQFSDDIQQMTGQRPSLYWRLCWKLVSPCFLLFVVVVSIVTFRPPHYGAYIFPDWANALGWVIATSSMAMVPIYAAYKFCSLPGSFREKLAYAIAPEKDRELVDRGEVRQFTLRHWLKV
With B2, in data set [6], the Km came to 0.10 ± 0.07 µM.

For the origin of these results see article PMC8131106 (eLife, 2021).
